Data on 18 compounds can be found in patent US8580794B2 (AbbVie Inc., priority 2009, dated 2013).

The target of this test is GST-Bc1-2 (Homo sapiens, UniProt P10415). The test is described as follows: Time Resolved-Fluorescence Resonance Energy Transfer (TR-FRET) Bcl-2 binding assay with F-Bak peptide probe. The following applies: GST-Bcl-2 1 nM, F-Bak probe 100 nM, Tb-anti-GST 1 nM; '<' = below limit of detection; read-out: TR-FRET Bcl-2 Binding Ki.
Chain of GST-Bc1-2 (P10415 whole entry): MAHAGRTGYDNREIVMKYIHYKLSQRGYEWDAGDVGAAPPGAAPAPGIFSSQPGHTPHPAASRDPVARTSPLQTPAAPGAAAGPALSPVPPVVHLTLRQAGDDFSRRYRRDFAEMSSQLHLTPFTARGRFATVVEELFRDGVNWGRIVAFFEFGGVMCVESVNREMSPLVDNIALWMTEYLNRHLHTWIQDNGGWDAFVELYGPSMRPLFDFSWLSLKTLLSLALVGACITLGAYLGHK

Procedure: The samples are then mixed on a shaker for 1 minute and incubated for an additional 3 hours at room temperature. For each assay, the probe/antibody and protein/probe/antibody were included on each assay plate as negative and positive controls, respectively.
The samples were then mixed on a shaker for 1 minute and incubated for an additional 3 hours at room temperature. For each assay, the probe/antibody and protein/probe/antibody were included on each assay plate as negative and positive controls, respectively.

With `CC1(C)CCC(CN2CCN(c3ccc(C(=O)NS(=O)(=O)c4ccc(NC5CN(C6CCOC6)C5)c([N+](=O)[O-])c4)c(Oc4cnc5[nH]ccc5c4)c3)CC2)=C(c2ccc(Cl)cc2)C1` (stereo not drawn) [Example 117, 4-(4-{[2-(4-chlorophenyl)-4,4-dimethylcyclohex-1-en-1-yl]methyl}piperazin-1-yl)-N-({3-nitro-4-[(1-tetrahydrofuran-3-ylazetidin-3-yl)amino]phenyl}sulfonyl)-2-(1H-pyrrolo[2,3-b]pyridin-5-yloxy)benzamide], the Ki was under 10 pM.
For the compound `CC1(C)CCC(CN2CCN(c3ccc(C(=O)NS(=O)(=O)c4ccc(NC[C@H]5CCN(C6CCOCC6)C5)c([N+](=O)[O-])c4)c(Oc4cnc5[nH]ccc5c4)c3)CC2)=C(c2ccc(Cl)cc2)C1` [Example 118, 4-(4-{[2-(4-chlorophenyl)-4,4-dimethylcyclohex-1-en-1-yl]methyl}piperazin-1-yl)-N-{[3-nitro-4-({[(3R)-1-tetrahydro-2H-pyran-4-ylpyrrolidin-3-yl]methyl}amino)phenyl]sulfonyl}-2-(1H-pyrrolo[2,3-b]pyridin-5-yloxy)benzamide], the Ki is under 10 pM.
In the case of `CC1(C)CCC(c2ccc(Cl)cc2)=C(CN2CCN(c3ccc(C(=O)NS(=O)(=O)c4ccc(OCC5(F)CCOCC5)c([N+](=O)[O-])c4)c(Oc4cnc5[nH]ccc5c4)c3)CC2)C1` [Example 119, 4-(4-{[2-(4-chlorophenyl)-5,5-dimethylcyclohex-1-en-1-yl]methyl}piperazin-1-yl)-N-({4-[(4-fluorotetrahydro-2H-pyran-4-yl)methoxy]-3-nitrophenyl}sulfonyl)-2-(1H-pyrrolo[2,3-b]pyridin-5-yloxy)benzamide], the Ki is under 10 pM.
For the compound `CO[C@H]1CC[C@@H](COc2ccc(S(=O)(=O)NC(=O)c3ccc(N4CCN(CC5=C(c6ccc(Cl)cc6)CC(C)(C)CC5)CC4)cc3Oc3cnc4[nH]ccc4c3)cc2[N+](=O)[O-])CC1` [Example 121, 2-(1H-pyrrolo[2,3-b]pyridin-5-yloxy)-4-(4-((2-(4-chlorophenyl)-4,4-dimethylcyclohex-1-enyl)methyl)piperazin-1-yl)-N-(4-((cis-4-methoxycyclohexyl)methoxy)-3-nitrophenylsulfonyl)benzamide], the Ki is under 10 pM.
As to `CC1(C)CCC(CN2CCN(c3ccc(C(=O)NS(=O)(=O)c4ccc(N[C@H]5CC[C@@H](NC6CC6)CC5)c([N+](=O)[O-])c4)c(Oc4cnc5[nH]ccc5c4)c3)CC2)=C(c2ccc(Cl)cc2)C1` [Example 122, Cis-4-(4-{[2-(4-chlorophenyl)-4,4-dimethylcyclohex-1-en-1-yl]methyl}piperazin-1-yl)-N-[(4-{[4-(cyclopropylamino)cyclohexyl]amino}-3-nitrophenyl)sulfonyl]-2-(1H-pyrrolo[2,3-b]pyridin-5-yloxy)benzamide], the Ki is under 10 pM.
As for `CC1(C)CCC(CN2CCN(c3ccc(C(=O)NS(=O)(=O)c4ccc(N[C@H]5CC[C@H](NC6CCOCC6)CC5)c([N+](=O)[O-])c4)c(Oc4cnc5[nH]ccc5c4)c3)CC2)=C(c2ccc(Cl)cc2)C1` [Example 123, Trans-4-(4-{[2-(4-chlorophenyl)-4,4-dimethylcyclohex-1-en-1-yl]methyl}piperazin-1-yl)-N-[(3-nitro-4-{[4-(tetrahydro-2H-pyran-4-ylamino)cyclohexyl]amino}phenyl)sulfonyl]-2-(1H-pyrrolo[2,3-b]pyridin-5-yloxy)benzamide], the Ki was under 10 pM.
`CC1(C)CCC(CN2CCN(c3ccc(C(=O)NS(=O)(=O)c4cnc(O[C@H]5CC[C@H](N6CCOCC6)CC5)c(Br)c4)c(Oc4cnc5[nH]ccc5c4)c3)CC2)=C(c2ccc(Cl)cc2)C1` [Example 124, Trans-N-({5-bromo-6-[(4-morpholin-4-ylcyclohexyl)oxy]pyridin-3-yl}sulfonyl)-4-(4-{[2-(4-chlorophenyl)-4,4-dimethylcyclohex-1-en-1-yl]methyl}piperazin-1-yl)-2-(1H-pyrrolo[2,3-b]pyridin-5-yloxy)benzamide]: the Ki was under 10 pM.
Consider `CO[C@H]1CC[C@H](COc2ccc(S(=O)(=O)NC(=O)c3ccc(N4CCN(CC5=C(c6ccc(Cl)cc6)CC(C)(C)CC5)CC4)cc3Oc3cnc4[nH]ccc4c3)cc2[N+](=O)[O-])CC1` [Example 125, Trans-4-(4-{[2-(4-chlorophenyl)-4,4-dimethylcyclohex-1-en-1-yl]methyl}piperazin-1-yl)-N-({4-[(4-methoxycyclohexyl)methoxy]-3-nitrophenyl}sulfonyl)-2-(1H-pyrrolo[2,3-b]pyridin-5-yloxy)benzamide], for which the Ki is under 10 pM.
As to `CC1(C)CCC(CN2CCN(c3ccc(C(=O)NS(=O)(=O)c4ccc(OCC5(F)CCN(C(=O)OC(C)(C)C)CC5)c([N+](=O)[O-])c4)c(Oc4cnc5[nH]ccc5c4)c3)CC2)=C(c2ccc(Cl)cc2)C1` [Example 126, tert-butyl 4-{[4-({[4-(4-{[2-(4-chlorophenyl)-4,4-dimethylcyclohex-1-en-1-yl]methyl}piperazin-1-yl)-2-(1H-pyrrolo[2,3-b]pyridin-5-yloxy)benzoyl]amino}sulfonyl)-2-nitrophenoxy]methyl}-4-fluoropiperidine-1-carboxylate], the Ki is under 10 pM.
Turning to `CC1(C)CCC(CN2CCN(c3ccc(C(=O)NS(=O)(=O)c4ccc(OCC5(F)CCNCC5)c([N+](=O)[O-])c4)c(Oc4cnc5[nH]ccc5c4)c3)CC2)=C(c2ccc(Cl)cc2)C1` [Example 127, 4-(4-{[2-(4-chlorophenyl)-4,4-dimethylcyclohex-1-en-1-yl]methyl}piperazin-1-yl)-N-({4-[(4-fluoropiperidin-4-yl)methoxy]-3-nitrophenyl}sulfonyl)-2-(1H-pyrrolo[2,3-b]pyridin-5-yloxy)benzamide], the Ki is under 10 pM.
The result for `CC1(C)CCC(CN2CCN(c3ccc(C(=O)NS(=O)(=O)c4ccc(N[C@H]5CC[C@H](N6CCN(C7CCOCC7)CC6)CC5)c([N+](=O)[O-])c4)c(Oc4cnc5[nH]ccc5c4)c3)CC2)=C(c2ccc(Cl)cc2)C1` [Example 128, Trans-4-(4-{[2-(4-chlorophenyl)-4,4-dimethylcyclohex-1-en-1-yl]methyl}piperazin-1-yl)-N-[(3-nitro-4-{[4-(4-tetrahydro-2H-pyran-4-ylpiperazin-1-yl)cyclohexyl]amino}phenyl)sulfonyl]-2-(1H-pyrrolo[2,3-b]pyridin-5-yloxy)benzamide] reads under 10 pM.
As for `CC1(C)CCC(CN2CCN(c3ccc(C(=O)NS(=O)(=O)c4ccc(OCC5CCN(C(CF)CF)CC5)c([N+](=O)[O-])c4)c(Oc4cnc5[nH]ccc5c4)c3)CC2)=C(c2ccc(Cl)cc2)C1` [Example 129, 4-(4-{[2-(4-chlorophenyl)-4,4-dimethylcyclohex-1-en-1-yl]methyl}piperazin-1-yl)-N-{[4-({1-[2-fluoro-1-(fluoromethyl)ethyl]piperidin-4-yl}methoxy)-3-nitrophenyl]sulfonyl}-2-(1H-pyrrolo[2,3-b]pyridin-5-yloxy)benzamide], the figure is 2 pM.
`CC1(C)CCC(CN2CCN(c3ccc(C(=O)NS(=O)(=O)c4ccc(N[C@@H]5CCN(C6CCOCC6)C5)c([N+](=O)[O-])c4)c(Oc4cnc5[nH]ccc5c4)c3)CC2)=C(c2ccc(Cl)cc2)C1` [Example 130, 4-(4-{[2-(4-chlorophenyl)-4,4-dimethylcyclohex-1-en-1-yl]methyl}piperazin-1-yl)-N-[(3-nitro-4-{[(3R)-1-tetrahydro-2H-pyran-4-ylpyrrolidin-3-yl]amino}phenyl)sulfonyl]-2-(1H-pyrrolo[2,3-b]pyridin-5-yloxy)benzamide]: the Ki was under 10 pM.
In the case of `CC1(C)CCC(CN2CCN(c3ccc(C(=O)NS(=O)(=O)c4ccc(N[C@@H]5CCN(C6CCOC(C)(C)C6)C5)c([N+](=O)[O-])c4)c(Oc4cnc5[nH]ccc5c4)c3)CC2)=C(c2ccc(Cl)cc2)C1` (stereo partly drawn) [Example 131, 4-(4-{[2-(4-chlorophenyl)-4,4-dimethylcyclohex-1-en-1-yl]methyl}piperazin-1-yl)-N-[(4-{[(3R)-1-(2,2-dimethyltetrahydro-2H-pyran-4-yl)pyrrolidin-3-yl]amino}-3-nitrophenyl)sulfonyl]-2-(1H-pyrrolo[2,3-b]pyridin-5-yloxy)benzamide], the Ki is under 10 pM.
For the compound `CC1(C)CCC(CN2CCN(c3ccc(C(=O)NS(=O)(=O)c4ccc(N[C@H]5CCN(C6CCOCC6)C5)c([N+](=O)[O-])c4)c(Oc4cnc5[nH]ccc5c4)c3)CC2)=C(c2ccc(Cl)cc2)C1` [Example 132, 4-(4-{[2-(4-chlorophenyl)-4,4-dimethylcyclohex-1-en-1-yl]methyl}piperazin-1-yl)-N-[(3-nitro-4-{[(3S)-1-tetrahydro-2H-pyran-4-ylpyrrolidin-3-yl]amino}phenyl)sulfonyl]-2-(1H-pyrrolo[2,3-b]pyridin-5-yloxy)benzamide], the Ki was under 10 pM.
Take `CC1(C)CCC(CN2CCN(c3ccc(C(=O)NS(=O)(=O)c4ccc(N[C@H]5CCN(C6CCOC(C)(C)C6)C5)c([N+](=O)[O-])c4)c(Oc4cnc5[nH]ccc5c4)c3)CC2)=C(c2ccc(Cl)cc2)C1` (stereo partly drawn) [Example 133, 4-(4-{[2-(4-chlorophenyl)-4,4-dimethylcyclohex-1-en-1-yl]methyl}piperazin-1-yl)-N-[(4-{[(3S)-1-(2,2-dimethyltetrahydro-2H-pyran-4-yl)pyrrolidin-3-yl]amino}-3-nitrophenyl)sulfonyl]-2-(1H-pyrrolo[2,3-b]pyridin-5-yloxy)benzamide]: the Ki is under 10 pM.
With `CN1CCOC(CNc2ccc(S(=O)(=O)NC(=O)c3ccc(N4CCN(CC5=C(c6ccc(Cl)cc6)CC(C)(C)CC5)CC4)cc3Oc3cnc4[nH]ccc4c3)cc2[N+](=O)[O-])C1` (stereo not drawn) [Example 134, 4-(4-{[2-(4-chlorophenyl)-4,4-dimethylcyclohex-1-en-1-yl]methyl}piperazin-1-yl)-N-[(4-{[(4-methylmorpholin-2-yl)methyl]amino}-3-nitrophenyl)sulfonyl]-2-(1H-pyrrolo[2,3-b]pyridin-5-yloxy)benzamide], the Ki was under 10 pM.
On to `COCCN1CCOC(CNc2ccc(S(=O)(=O)NC(=O)c3ccc(N4CCN(CC5=C(c6ccc(Cl)cc6)CC(C)(C)CC5)CC4)cc3Oc3cnc4[nH]ccc4c3)cc2[N+](=O)[O-])C1` (stereo not drawn) [Example 135, 4-(4-{[2-(4-chlorophenyl)-4,4-dimethylcyclohex-1-en-1-yl]methyl}piperazin-1-yl)-N-{[4-({[4-(2-methoxyethyl)morpholin-2-yl]methyl}amino)-3-nitrophenyl]sulfonyl}-2-(1H-pyrrolo[2,3-b]pyridin-5-yloxy)benzamide], for which the Ki is under 10 pM.
